For assay [1], the target named is T1, hBGT1 (Homo sapiens, UniProt P48065).
T1 construct: expressed in transfected cells
T1 sequence (P48065 1-614): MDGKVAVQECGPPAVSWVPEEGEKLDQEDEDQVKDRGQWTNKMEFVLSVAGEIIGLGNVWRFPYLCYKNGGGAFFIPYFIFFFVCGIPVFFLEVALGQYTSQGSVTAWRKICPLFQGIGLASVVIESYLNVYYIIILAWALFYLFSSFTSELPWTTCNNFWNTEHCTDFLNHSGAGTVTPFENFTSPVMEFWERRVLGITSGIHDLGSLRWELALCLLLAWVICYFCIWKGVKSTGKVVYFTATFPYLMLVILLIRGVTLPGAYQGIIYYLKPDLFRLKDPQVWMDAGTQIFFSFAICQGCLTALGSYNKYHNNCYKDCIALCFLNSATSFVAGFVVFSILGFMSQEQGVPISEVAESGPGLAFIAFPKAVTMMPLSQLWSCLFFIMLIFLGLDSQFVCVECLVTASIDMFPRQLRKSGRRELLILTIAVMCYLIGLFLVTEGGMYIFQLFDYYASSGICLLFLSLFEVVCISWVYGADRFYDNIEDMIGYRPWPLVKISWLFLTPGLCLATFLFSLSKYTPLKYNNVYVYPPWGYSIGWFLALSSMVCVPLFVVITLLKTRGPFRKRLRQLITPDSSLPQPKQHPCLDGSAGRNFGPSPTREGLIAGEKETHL
Briefly: FLIPR Membrane Potential (FMP) assay at hBGT1 stably expressed in CHO Flp-In cells. The assay is classed as cell-based. Particulars: for substrate character at hBGT1 in FMP assay: concentration-dependent increase in fluorescence signal; for Mean Rmax as % of GABA Rmax ± S.E.M. / EC50: hBGT1 stably expressed in CHO Flp-In cells; for Mean Rmax as % of GABA Rmax ± S.E.M.: FMP assay; for EC50: three independent experiments. The method, then: The fluorescence-based FMP assay was performed as previously described, for the functional characterization of the electrogenic transport of substrates via hBGT1. Briefly, CHO Flp-In cells stably expressing hBGT1 or hGAT1 were plated (~ 50,000 cells/well) into black PDL-coated 96-well plates with clear bottom (VWR, Radnor, PA, USA). The next day, the growth medium was removed, and cells were washed once with HBSS assay buffer and FMP Blue Dye (Molecular Devices, Crawley, UK), added, and incubated. Ligands were added via the NOVOStar plate reader (BMG Labtech GmbH, Offenburg, Germany), preheated to 37 °C, approximately 10 min before reading of the cell plate. The fluorescence signals were measured for 33.8 s upon ligand addition using an emission and excitation wavelength of […], respectively. Electrogenic transport of substrates via hBGT1 will lead to an influx of the negatively charged FMP Blue dye that will bind to intracellular proteins and lipids resulting in an increase in the fluorescence signal.
(§1) Data analysis and statistical evaluation were performed in GraphPad Prism 7.02 (GraphPad Software, San Diego, CA, USA). Concentration-uptake inhibition curves, generated from the radioligand-based uptake assays, were fitted by non-linear regression, using the equation for sigmoidal concentration–response with variable slope: Y = Bottom + (Top–Bottom)/(1 + 10^((logIC50 − X) × HillSlope)), where Y is the response, X is the logarithm of the concentration, Top and Bottom are the plateaus in same units as Y, logIC50 is the concentration giving a response halfway between Bottom and Top, and the HillSlope is the steepness of the curve. For the substrate concentration–response curves generated from the FMP assay, the same equation was used but with logEC50 instead for logIC50. Unless otherwise stated, data are presented as means ± S.E.M. of at least three independent pooled experiments performed in triplicates.

A further assay concerns the target T2, hGAT3 (Homo sapiens, UniProt P48066).
T2 construct: expressed in transfected cells
T2 sequence (P48066 1-632): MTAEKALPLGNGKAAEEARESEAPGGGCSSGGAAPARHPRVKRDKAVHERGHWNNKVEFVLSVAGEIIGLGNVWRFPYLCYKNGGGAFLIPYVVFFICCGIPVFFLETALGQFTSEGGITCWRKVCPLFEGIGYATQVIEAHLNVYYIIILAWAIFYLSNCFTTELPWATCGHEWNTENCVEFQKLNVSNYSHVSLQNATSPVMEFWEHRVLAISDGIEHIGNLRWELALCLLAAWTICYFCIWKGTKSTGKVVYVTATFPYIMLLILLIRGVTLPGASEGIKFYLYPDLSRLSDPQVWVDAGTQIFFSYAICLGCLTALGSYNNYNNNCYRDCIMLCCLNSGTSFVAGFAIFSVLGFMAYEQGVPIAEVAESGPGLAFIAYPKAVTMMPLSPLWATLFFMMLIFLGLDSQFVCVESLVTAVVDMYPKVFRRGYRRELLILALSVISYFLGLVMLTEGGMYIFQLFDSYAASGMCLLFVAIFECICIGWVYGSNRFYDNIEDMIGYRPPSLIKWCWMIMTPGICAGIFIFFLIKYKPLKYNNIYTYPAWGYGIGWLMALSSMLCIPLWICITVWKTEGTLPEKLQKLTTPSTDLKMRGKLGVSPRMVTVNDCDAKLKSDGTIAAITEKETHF
Briefly: [3H]GABA uptake inhibition at hGAT3 stably expressed in CHO Flp-In cells. The assay is classed as cell-based. Particulars: 30 nM [3H]GABA, 3 min, CHO Flp-In cells stably expressing hGAT3; read-out: IC50 hGAT3. The method, then: CHO Flp-In and tsA201 cells were cultured at 37 °C in a humidified atmosphere of […] and 5% CO2. As previously described[38],[63], CHO Flp-In cells stably expressing the hGATs were cultured in Ham’s F12 Nutrient Mix supplemented with 10% FBS, 1% P/S and plasmocin (5 µg/mL) under the selection pressure of hygromycin B (200 µg/mL). DMEM with GlutaMAX-I supplemented with 10% FBS and 1% P/S was used as growth medium for the tsA201 cells, which were transfected with DNA constructs using PolyFect according to the manufacturer’s specifications (Qiagen, West Sussex, UK), but with half of the recommended reagent volumes.
Uptake assays were performed in PDL-coated white 96-well polystyrene cell culture microplates (PerkinElmer, Boston, MA, USA) as previously described[38],[63]. […] Assay buffer was HBSS supplemented with 20 mM HEPES, 1 mM CaCl2 and 1 mM MgCl2, pH 7.4. […] After termination, scintillation liquid (MicroScint-20, PerkinElmer) was added and the radioactivity measured in a TopCount NXT Microplate Scintillation Counter (PerkinElmer).
as §1

For assay [2], the target named is T1, hBGT1. The note with it: [3H]GABA uptake, recombinant hBGT1; adapted from Al-Khawaja et al.; cited from earlier work.

Molecules are shown by their SMILES. Where “and” joins values, the source holds several entries; their conditions need not be identical. Equal entries are not always repeated.

Take `C[C@@H]1N=C(N)NC[C@@H]1C(=O)O` (single isomer, unassigned) [l-15a]: on hBGT1 [1], the “substrate character at hBGT1 in FMP assay” value (shortened to “substrate character at hBGT1”) was “substrates for hBGT1”, the “Mean Rmax as % of GABA Rmax ± S.E.M.” value is 36 ± 2.9 % of GABA Rmax and a half-maximal effect (EC50) was put at 40 µM. For the same molecule, the IC50 at hGAT3 was more than 1000 µM.
Turning to `NC1=NCC(C(=O)O)CN1` (centres unmarked) [ATPCA, 2-amino-1,4,5,6-tetrahydropyrimidine-5-carboxylic acid, reference compound], at hBGT1 [2], the IC50 is 2.5 µM and the “pIC50 ± S.E.M. hBGT1” value is given as 5.60 ± 0.11.
As for `NC1=NCC(C(=O)O)CC1` (centres unmarked) [compound 2, 6-amino-2,3,4,5-tetrahydropyridine-3-carboxylic acid, reference compound], the “substrate character at hBGT1” value on hBGT1 [1] is “substrates for hBGT1”. Besides, at hBGT1 [1], the “Mean Rmax as % of GABA Rmax ± S.E.M.” value is 103 ± 3.9 % of GABA Rmax and 76 ± 2.7 % of GABA Rmax. Further, the IC50 on hBGT1 [2] was 9.8 µM; at hGAT3 it was more than 1000 µM.
Turning to `CCN1CC(C(=O)O)CN=C1N.Cl` (centres unmarked) [compound 3], the “substrate character at hBGT1” value at hBGT1 [1] is “substrates for hBGT1”. For the same molecule, the IC50 at hGAT3 is more than 1000 µM.
With `Cl.NC1=NCC(C(=O)O)CN1Cc1ccccc1` (centres unmarked) [compound 4], the IC50 at hGAT3 was 117 µM.
In the case of `NC1=NC=C(C(=O)O)CN1.O=C(O)C(F)(F)F` [compound 11], at hBGT1 [1], the “substrate character at hBGT1” value was “substrates for hBGT1”, the “Mean Rmax as % of GABA Rmax ± S.E.M.” value was 95 ± 4.0 % of GABA Rmax and the response was half-maximal at 75 µM (EC50). Moreover, the IC50 on hGAT3 was more than 1000 µM.

In general, EC50 refers to the midpoint of the concentration-response curve. Low readings indicate an effect from little substance, high ones a need for much substance. A word on the IC50: it is the concentration needed to halve the response being measured.
